What all share (experiment): Competition binding of fMLFK with WK(FITC)YMVm, flow cytometry on HEK293F cells
Assay [1] deals with T1, wild-type (WT) and mutant FPR2 (Homo sapiens, UniProt P25090, L81F).
T1 construct: expressed in transfected cells; host or cells: HEK293F
T1 sequence (P25090 1-351 L81F): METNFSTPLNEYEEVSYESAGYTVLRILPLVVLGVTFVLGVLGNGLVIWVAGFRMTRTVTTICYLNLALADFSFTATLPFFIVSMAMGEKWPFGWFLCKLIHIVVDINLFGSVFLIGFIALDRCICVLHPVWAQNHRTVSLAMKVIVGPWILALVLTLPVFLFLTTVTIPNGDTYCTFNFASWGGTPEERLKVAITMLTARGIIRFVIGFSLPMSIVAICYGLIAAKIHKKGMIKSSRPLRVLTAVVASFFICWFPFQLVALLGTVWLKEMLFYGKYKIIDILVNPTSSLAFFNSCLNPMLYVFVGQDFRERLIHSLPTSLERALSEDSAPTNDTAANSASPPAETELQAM
The settings on record: FPR2 L81F; mean ± s.e.m., n=4; SEM. Here is the method:
(§1) Flag-tagged wild-type and mutant FPR2s were cloned into the pTT5 vector and expressed in HEK293F cells. The cells were harvested, and washed with Hanks’ Balanced Salt Solution (HBSS) buffer supplemented with 0.5% bovine serum albumin and 20 mM HEPES, pH 7.4. The cells were then resuspended in the same buffer to the final concentration of 1 × 10^6 cells per ml. The cell-surface expression was measured as mentioned above. […] Mean fluorescent intensity of each well was then read by a FCM (flow cytometry) reader (Millipore). […] For competitive binding of fMLFK, cells were plated in 96-well plates (100,000 cells per well), and incubated with WK(FITC)YMVm at 4 °C for 1 h. The following concentrations of WK(FITC)YMVm were used: 10 nM (wild type, L81^2.60F, E89G, and V105^3.32A), 30 nM (D281^7.32G), 40 nM (H102^3.29F, V160^4.60A, L268^ECL3A, N285^7.36A, and F292^7.43A), and 100 nM (L164^4.64A and T177A). Then increasing concentrations of fMLFK (100 nM–1 mM) were added, and incubated for another 1 h on ice. Mean fluorescent intensity values were measured by flow cytometry. Data were analyzed using Prism 7.0.

Assay [2] addresses T2, wild-type (WT) and mutant FPR2 (Homo sapiens, UniProt P25090, T177A).
T2 construct: expressed in transfected cells; host or cells: HEK293F
T2 sequence (P25090 1-351 T177A): T1 sequence (P25090 1-351 L81F) with F81L, T177A
The settings on record: FPR2 T177A; mean ± s.e.m., n=4; SEM. The protocol: as §1

For assay [3], the target named is T3, wild-type (WT) and mutant FPR2 (Homo sapiens, UniProt P25090, E89G).
T3 construct: expressed in transfected cells; host or cells: HEK293F
T3 sequence (P25090 1-351 E89G): T1 sequence (P25090 1-351 L81F) with F81L, E89G
Conditions: FPR2 E89G; mean ± s.e.m., n=3; SEM. The protocol: as §1

Assay [4] has as its target T4, wild-type (WT) and mutant FPR2 (Homo sapiens, UniProt P25090).
T4 construct: expressed in transfected cells; host or cells: HEK293F
T4 sequence (P25090 1-351): T1 sequence (P25090 1-351 L81F) with F81L
Conditions: FPR2 WT; mean ± s.e.m., n=5; SEM. Here is the method:
as §1

Assay [5] has as its target T5, wild-type (WT) and mutant FPR2 (Homo sapiens, UniProt P25090, L164A).
T5 construct: expressed in transfected cells; host or cells: HEK293F
T5 sequence (P25090 1-351 L164A): T1 sequence (P25090 1-351 L81F) with F81L, L164A
The settings on record: FPR2 L164A; mean ± s.e.m., n=3; SEM. The protocol: as §1

Each structure is given as a SMILES string. Residue numbers refer to the chain shown, from its start. Residues, ends and D or L forms follow the SMILES beside them. *: point of attachment. For = O=C*

Turning to `CSCC[C@H](NC=O)C(=O)N[C@@H](CC(C)C)C(=O)N[C@@H](Cc1ccccc1)C(=O)N[C@@H](CCCCN)C(=O)O` [fMLFK] (For-MLFK-OH), the “pKi, competition binding” value in assay [1] is reported as 3.97 ± 0.27; in assay [2] it was 3.97 ± 0.21; in assay [3] it was 3.49 ± 0.31; in assay [4], 4.08 ± 0.19; in assay [5] it was 4.16 ± 0.25.

These data come from publication PMC7058083, “Structural basis of ligand binding modes at the human formyl peptide receptor 2” (Nature Communications, 2020).
